Test results reported in patent US11306083B2, “Amide substituted imidazo[4,5-C]quinoline compounds with a branched chain linking group for use as an immune response modifier” (3M INNOVATIVE PROPERTIES COMPANY, priority 2017, dated 2022).

Columns and labels:
Format in all cases: cell-based
Conditions in all cases: 21-24 hrs, lowest concentration giving cytokine at least 2× negative control, tested 0.01-30 micromolar
[1] = tested on: TNF-alpha induction in human peripheral blood mononuclear cells (PBMC); experiment: Cytokine induction in human cells (PBMC): TNF-alpha by multiplex bead assay
Method: (§1) Cytokine Induction in Human Cells
(§2) Whole blood was obtained from healthy human donors and collected by venipuncture into vacutainer tubes or syringes containing EDTA. Human peripheral blood mononuclear cells (PBMC) were purified from the whole blood by density gradient centrifugation. Histopaque 1077 (15 mL, Sigma, St. Louis, Mo.) was transferred to 6×50 mL sterile polypropylene conical tubes. The Histopaque was overlayed with 15-25 mL of blood diluted 1:2 in Hank's Balanced Salts Solution (HBSS) (Gibco, Life Technology, Grand Island N.Y.). The tubes were then centrifuged at 1370 rpm for 30 minutes at 20° C., with no brake (400×g, GH 3.8A Rotor).
(§3) The interface (buffy coat) containing the PBMC was collected and placed in a new sterile 50 mL conical polypropylene centrifuge tube. The PBMC were mixed with an equal volume of HBSS (about 20 mL from the interface and about 20 mL of HBSS), and then centrifuged at 1090 rpm, 10 min, 20° C., with brake (270×g, GH 3.8A Rotor). After completing centrifugation, the cells were resuspended in 2-3 mL ACK Red blood cell lysis buffer (ammonium chloride potassium solution, Gibco, Life Technology) and incubated for 2-5 minutes at 20° C. […]
(§4) The number of viable cells was determined by counting with a Miltenyi FACS instrument (Miltenyi Biotec Inc., San Diego, Calif.) or by using a hemacytometer. […] Ten microliters of the diluted cells were then applied to the hemacytometer, and the number of viable PBMC were determined by microscopy. […]
(§5) IFN-alpha cytokine levels (pg/mL) were measured by ELISA (human IFN-α, pan specific, Mabtech, Cincinnati, Ohio). IFN-gamma and TNF-alpha levels (pg/mL) were measured by multiplex bead assay (magnetic beads, R & D Systems Minneapolis, Minn.) according to the manufacturer's instructions.
(§6) Specifically, the minimum effective concentration of each compound (micromolar) was determined as the lowest concentration of the compound that induced a measured cytokine response at a level ([…]) that was at least 2× greater than that observed with the negative control wells.

[2] = tested on: IFN-gamma induction in human peripheral blood mononuclear cells (PBMC); experiment: Cytokine induction in human cells (PBMC): IFN-gamma by multiplex bead assay
Method: as §1, §2, §3, §4, §5, §6

[3] = tested on: IFN-alpha induction in human peripheral blood mononuclear cells (PBMC); experiment: Cytokine induction in human cells (PBMC): IFN-alpha by ELISA
Method: as §1, §2, §3, §4, §5, §6

Row | Structure (SMILES) | MEC to Induce Cytokine TNF-alpha [1] [µM] | MEC to Induce Cytokine IFN-gamma [2] [µM] | MEC to Induce Cytokine IFN-alpha [3] [µM]
1 | CCCCCCCCCCCCCCCCCC(=O)NCCC[C@@H](COCC)n1cnc2c(N)nc3ccccc3c21 [Example 1, N-[(4S)-4-(4-aminoimidazo[4,5-c]quinolin-1-yl)-5-ethoxy-pentyl]octadecanamide] | ≤0.01 | 1.1 | ≤0.01
2 | CCCCCCCCCCCCCC(=O)NCCC[C@@H](COCC)n1cnc2c(N)nc3ccccc3c21 [Example 2, N-[(4S)-4-(4-aminoimidazo[4,5-c]quinolin-1-yl)-5-ethoxy-pentyl]tetradecanamide] | ≤0.01 | 0.04 | ≤0.01
3 | CCCCCCCCCC(=O)NCCC[C@@H](COCC)n1cnc2c(N)nc3ccccc3c21 [Example 3, N-[(4S)-4-(4-aminoimidazo[4,5-c]quinolin-1-yl)-5-ethoxy-pentyl]decanamide] | ≤0.01 | 0.04 | ≤0.01
